# According to US20220267857A1, “METHOD FOR DETERMINING THE RESPONSE TO TREATMENT OF A PATIENT AFFECTED BY NON-SMALL CELL LUNG CARCINOMA (NSCLC)” (FUNDACIÓN PARA LA INVESTIGACIÓN BIOMÉDIKCA DEL HOSPITAL …, priority 2019, published 2022):
# Columns and labels:
# Assay in all cases: Viability curves to CDDP, resistant vs sensitive subtype
# Assay type in all cases: cell-based
# [1] = test system: 41M/41MR ovarian cancer cell lines; details: IC50 of resistant cell line/IC50 of sensitive cell line; 41MR vs 41M; p<0.001
# Procedure: (§1) FIG. 1. Viability curves to CDDP and CBDCA. The curves show CDDP resistance of cells (A) H23R, (B) H460R, (C) A2780R and (D) 41MR; and to CBDCA of cells (E) H23R-CBDCA and (F) A2780R-CBDCA. The data was normalized with respect to the untreated control, which was established as 100%. IC50 is the concentration that induces the death of 50% of the cell population. The resistance index (IR) is calculated as IC50 of the resistant cell line/IC50 of the sensitive cell line. P<0.001 was considered a significant change in drug sensitivity (Student's t test).
# (§2) Cell Culture Lung and ovarian cancer cell lines H23, H460, H1299, H727, A2780 and OVCAR3 were purchased from the ATCC (Manassas, Va.) or ECACC (Sigma-Aldrich, Spain). All of them were maintained in RPMI supplemented with 10% exosome-depleted FBS, except for OVCAR3 which was cultured in RPMI with 20% exosome-depleted FBS. FBS was depleted of bovine exosomes by ultracentrifugation at 100,000×g for 16 h at 4° C. The CDDP-resistant variants H23R, H460R, A2780R and OVCAR3R, and the carboplatin-resistant variants H23R-CBDCA and A2780R-CBDCA were established by exposing cells to increasing doses of each platinum-based drug as described. The CDDP sensitive and resistant ovarian cancer cell lines 41M and 41MR were provided by Dr. Kelland (UK) and maintained in DMEM supplemented with 10% exosome-depleted FBS.
# (§3) To determine whether cisplatin-resistant cells transmit their resistance through exosomes we used matched CDDP-sensitive/resistant lung cancer and ovarian cell lines H23S/H23R, H460S/H460R, A2780S/A2780R and 41M/41MR and, that we established previously (Ibanez de Caceres, I. et al. IGFBP-3 hypermethylation-derived deficiency mediates cisplatin resistance in non-small-cell lung cancer. Oncogene 29, 1681-1690 (2010); Vera, O. et al. DNA Methylation of miR-7 is a Mechanism Involved in Platinum Response through MAFG Overexpression in Cancer Cells. Theranostics 7, 4118-4134 (2017)). […] We then isolated exosomes from resistant subtypes H23R, H460R, 41MR and A2780R and confirmed their proper size (around 100 nm) using electron microscopy and NanoSight analysis (FIGS. 2A and B) Once we have confirmed that our samples were successfully enriched in exosomes, we wanted to assess if exosomes from cisplatin-resistant cells could alter the drug response of sensitive cells. For that purpose, firstly, we examined whether exosomes isolated from CDDP resistant subtypes were taken up by sensitive parental cells, we labelled exosomes with PKH26 and exposed them to sensitive cells. The analysis using flow cytometry confirmed the uptake of resistant exosomes in more than 77% of sensitive cells H23S, 41M and A2780S compared with PBS control (FIG. 3).
# [2] = test system: H460S/H460R lung cancer cell lines; details: IC50 of resistant cell line/IC50 of sensitive cell line, p<0.001
# Procedure: as §1, §2, §3
# [3] = test system: A2780S/A2780R ovarian cancer cell lines; details: IC50 of resistant cell line/IC50 of sensitive cell line, p<0.001
# Procedure: as §1, §2, §3
# [4] = test system: H23S/H23R lung cancer cell lines; details: IC50 of resistant cell line/IC50 of sensitive cell line, p<0.001
# Procedure: as §1, §2, §3
smiles,measurement,setting,value
N.N.[Cl][Pt][Cl] [cisplatin],Resistant-Index (RI),[1],4.26
same,Resistant-Index (RI),[2],2.49
same,Resistant-Index (RI),[3],2.11
same,Resistant-Index (RI),[4],2.77
